Key:
bedstraw = assay: Test B pre/postemergence bedstraw; type: in vivo, Galium aparine
Method in brief: (§1)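 Response is a visual 0-to-10 score relative to untreated plants, where 0 means no effect and 10 means complete control, taken twelve to sixteen days after application. Treatments went onto soil at planting and onto foliage of 1- to 4-leaf plants, using a surfactant-containing non-phytotoxic solvent.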

blackgrass = assay: Test B pre/postemergence blackgrass; type: in vivo, Alopecurus myosuroides
Method in brief: as §1

surinam grass = assay: Test B pre/postemergence surinam grass; type: in vivo, Brachiaria decumbens
Method in brief: as §1

corn = assay: Test B pre/postemergence corn; type: in vivo, Zea mays
Method in brief: as §1

crabgrass = assay: Test B pre/postemergence crabgrass; type: in vivo, Digitaria sanguinalis
Method in brief: as §1

pigweed = assay: Test B pre/postemergence pigweed; type: in vivo, Amaranthus retroflexus
Method in brief: as §1

rape = assay: Test B pre/postemergence rape; type: in vivo, Brassica napus
Method in brief: as §1

soybean = assay: Test B pre/postemergence soybean; type: in vivo, Glycine max
Method in brief: as §1

sugar beet = assay: Test B pre/postemergence sugar beet; type: in vivo, Beta vulgaris
Method in brief: as §1

velvetleaf = assay: Test B pre/postemergence velvetleaf; type: in vivo, Abutilon theophrasti
Method in brief: as §1

wheat = assay: Test B pre/postemergence wheat; type: in vivo, Triticum aestivum
Method in brief: as §1

wild oat = assay: Test B pre/postemergence wild oat; type: in vivo, Avena fatua
Method in brief: as §1

purple nutsedge = assay: Test B pre/postemergence purple nutsedge; type: in vivo, Cyperus rotundus
Method in brief: as §1

rice = assay: Test B flood test rice; type: in vivo, Oryza sativa
Method in brief: (§2)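 Each value is a visual injury score relative to controls, with 10 meaning complete control and 0 no effect. Evaluation took place twelve to sixteen days after the 2-leaf-stage plants were treated and kept in the greenhouse.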

smallflower flatsedge = assay: Test B flood test smallflower flatsedge; type: in vivo, Cyperus difformis
Method in brief: as §2

duck salad = assay: Test B flood test duck salad; type: in vivo, Heteranthera limosa
Method in brief: as §2

[1] = Postemergence, Rate 62 g/ha, scale 0 to 10, 0 is no effect, 10 is complete control
[2] = Preemergence, Rate 62 g/ha, scale 0 to 10, 0 is no effect, 10 is complete control
[3] = Preemergence, Rate 125 g/ha, scale 0 to 10 (0 no effect, 10 complete control)
[4] = Preemergence, Rate 250 g/ha, scale of 0 to 10 where 0 is no effect and 10 is complete control
[5] = Preemergence, Rate 500 g/ha, scale 0 (no effect) to 10 (complete control)
[6] = Postemergence, Rate 250 g/ha, scale 0 to 10, 0 no effect, 10 complete control
[7] = Rate 125 g/ha, Postemergence, scale 0 to 10, 0 no effect, 10 complete control
[8] = Rate 500 g/ha, Postemergence, 0 to 10 scale (0 no effect, 10 complete control)
[9] = Rate 125 g/ha, Postemergence section (flood test species), scale 0 to 10, 0 no effect, 10 complete control
[10] = Rate 500 g/ha, Postemergence section of Table B, 0 to 10 scale (0 no effect, 10 complete control)
[11] = flood test, listed under Postemergence, Rate 250 g/ha, scale 0 to 10, 0 no effect, 10 complete control

Cc1ccccc1-n1c(=O)on(C(=O)N(c2ccc(Cl)cc2)C(C)C)c1=O [Compound 41]
5: Crabgrass plant response rating (crabgrass; [6]) | Redroot pigweed plant response rating (pigweed; [8])
1: Crabgrass plant response rating (crabgrass; [7]) | Plant response rating, Redroot pigweed (pigweed; [3]) | Plant response rating, Redroot pigweed (pigweed; [4])
2: Plant response rating, Blackgrass (blackgrass; [4])
3: Blackgrass plant response rating (blackgrass; [6]) | Plant response rating, Crabgrass (crabgrass; [2]) | Redroot pigweed plant response rating (pigweed; [6]) | Soybean plant response rating (soybean; [1]) | Soybean plant response rating (soybean; [7])
4: Blackgrass plant response rating (blackgrass; [5]) | Blackgrass plant response rating (blackgrass; [8]) | Plant response rating, B. signalgrass (surinam grass; [4]) | Plant response rating, Crabgrass (crabgrass; [3]) | Soybean plant response rating (soybean; [6]) | Wild oats plant response rating (wild oat; [5])
0: Bedstraw plant response rating (bedstraw; [1]) | Plant response rating, Bedstraw (bedstraw; [2]) | Plant response rating, Bedstraw (bedstraw; [3]) | Plant response rating, Bedstraw (bedstraw; [4]) | Bedstraw plant response rating (bedstraw; [5]) | Blackgrass plant response rating (blackgrass; [1]) | Plant response rating, Blackgrass (blackgrass; [2]) | Plant response rating, Blackgrass (blackgrass; [3]) | Blackgrass plant response rating (blackgrass; [7]) | B. signalgrass plant response rating (surinam grass; [1]) | B. signalgrass plant response rating (surinam grass; [6]) | Plant response rating, B. signalgrass (surinam grass; [2]) | Plant response rating, B. signalgrass (surinam grass; [3]) | B. signalgrass plant response rating (surinam grass; [7]) | B. signalgrass plant response rating (surinam grass; [8]) | Corn plant response rating (corn; [1]) | Corn plant response rating (corn; [6]) | Plant response rating, Corn (corn; [2]) | Plant response rating, Corn (corn; [3]) | Plant response rating, Corn (corn; [4]) | Corn plant response rating (corn; [5]) | Corn plant response rating (corn; [7]) | Corn plant response rating (corn; [8]) | Crabgrass plant response rating (crabgrass; [1]) | Redroot pigweed plant response rating (pigweed; [1]) | Plant response rating, Redroot pigweed (pigweed; [2]) | Redroot pigweed plant response rating (pigweed; [7]) | Rape plant response rating (rape; [1]) | Rape plant response rating (rape; [6]) | Plant response rating, Rape (rape; [2]) | Plant response rating, Rape (rape; [3]) | Plant response rating, Rape (rape; [4]) | Rape plant response rating (rape; [5]) | Rape plant response rating (rape; [7]) | Rape plant response rating (rape; [8]) | Plant response rating, Soybean (soybean; [2]) | Plant response rating, Soybean (soybean; [3]) | Plant response rating, Soybean (soybean; [4]) | Soybean plant response rating (soybean; [5]) | Sugarbeets plant response rating (sugar beet; [1]) | Sugarbeets plant response rating (sugar beet; [6]) | Plant response rating, Sugarbeets (sugar beet; [2]) | Plant response rating, Sugarbeets (sugar beet; [3]) | Plant response rating, Sugarbeets (sugar beet; [4]) | Sugarbeets plant response rating (sugar beet; [5]) | Sugarbeets plant response rating (sugar beet; [7]) | Velvetleaf plant response rating (velvetleaf; [1]) | Velvetleaf plant response rating (velvetleaf; [6]) | Plant response rating, Velvetleaf (velvetleaf; [2]) | Plant response rating, Velvetleaf (velvetleaf; [3]) | Plant response rating, Velvetleaf (velvetleaf; [4]) | Velvetleaf plant response rating (velvetleaf; [5]) | Velvetleaf plant response rating (velvetleaf; [7]) | Wheat plant response rating (wheat; [1]) | Wheat plant response rating (wheat; [6]) | Plant response rating, Wheat (wheat; [2]) | Plant response rating, Wheat (wheat; [3]) | Plant response rating, Wheat (wheat; [4]) | Wheat plant response rating (wheat; [5]) | Wheat plant response rating (wheat; [7]) | Wild oats plant response rating (wild oat; [1]) | Wild oats plant response rating (wild oat; [6]) | Plant response rating, Wild oats (wild oat; [3]) | Plant response rating, Wild oats (wild oat; [4]) | Wild oats plant response rating (wild oat; [7]) | Nutsedge plant response rating (purple nutsedge; [1]) | Nutsedge plant response rating (purple nutsedge; [6]) | Plant response rating, Nutsedge (purple nutsedge; [2]) | Plant response rating, Nutsedge (purple nutsedge; [3]) | Plant response rating, Nutsedge (purple nutsedge; [4]) | Nutsedge plant response rating (purple nutsedge; [5]) | Nutsedge plant response rating (purple nutsedge; [7]) | Nutsedge plant response rating (purple nutsedge; [8]) | Rice plant response rating (rice; [1]) | Rice plant response rating (rice; [9]) | Rice plant response rating (rice; [10]) | Rice plant response rating (rice; [11]) | S. Flatsedge plant response rating (smallflower flatsedge; [1]) | S. Flatsedge plant response rating (smallflower flatsedge; [9]) | S. Flatsedge plant response rating (smallflower flatsedge; [11]) | Ducksalad plant response rating (duck salad; [1]) | Ducksalad plant response rating (duck salad; [9]) | Ducksalad plant response rating (duck salad; [10]) | Ducksalad plant response rating (duck salad; [11])
7: B. signalgrass plant response rating (surinam grass; [5]) | Crabgrass plant response rating (crabgrass; [8]) | Redroot pigweed plant response rating (pigweed; [5])
10: Crabgrass plant response rating (crabgrass; [5])
8: Plant response rating, Crabgrass (crabgrass; [4])
